# Experimental data taken from PMC5607274, “An iterative compound screening contest method for identifying target protein inhibitors using the tyrosine-protein kinase Yes” (Scientific Reports, 2017).
# Target: T1, human recombinant Yes [a.a. 2–543 (end)] (Homo sapiens, UniProt P07947)
# T1 construct: human recombinant Yes [a.a; 2–543 (end)]; purchased BPS Bioscience 40488
# Test: ADP-Glo kinase assay, inhibition rates of Yes phosphorylation activity (first and second screening)
# Format: biochemical
# Conditions: first screening; mean of n = 4 wells; 10 μmol L−1 compound
# Summary of the method: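 Hits from a first pass were rescreened after re-dissolution from fresh powder. The first pass reported the mean inhibition rate of quadruplicate wells per compound. Activity was that of recombinant human Yes [a.a. 2–543] kinase, read out with the ADP-Glo ADP-detection method.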
# T1 sequence (P07947 2-543): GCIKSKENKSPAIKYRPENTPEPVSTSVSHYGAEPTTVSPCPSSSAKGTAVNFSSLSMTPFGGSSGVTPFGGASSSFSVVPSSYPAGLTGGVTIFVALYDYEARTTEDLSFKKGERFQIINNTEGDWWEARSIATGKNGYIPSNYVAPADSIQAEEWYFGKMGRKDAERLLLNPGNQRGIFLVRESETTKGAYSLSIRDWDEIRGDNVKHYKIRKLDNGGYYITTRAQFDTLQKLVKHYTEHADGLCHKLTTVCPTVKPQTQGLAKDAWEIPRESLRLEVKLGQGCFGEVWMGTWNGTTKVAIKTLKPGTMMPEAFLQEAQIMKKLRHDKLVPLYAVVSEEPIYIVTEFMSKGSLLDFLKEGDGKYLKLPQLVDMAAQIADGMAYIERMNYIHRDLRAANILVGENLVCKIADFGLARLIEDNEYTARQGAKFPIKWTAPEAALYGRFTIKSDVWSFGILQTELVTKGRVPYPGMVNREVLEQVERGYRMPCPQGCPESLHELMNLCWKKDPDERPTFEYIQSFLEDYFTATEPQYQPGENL
row,First screening IR (inhibition rate) [%],Structure (SMILES)
1,-25,Cc1cccc(NC(=O)CN2CCN(C(=O)CN3C(=O)Cn4c(cc5ccccc54)C3=O)CC2)c1C [Compound Z826666316]
2,5,Cc1cc(NC(=O)c2ccn(-c3ccccc3)n2)n(CCC#N)n1 [Compound Z826713438]
3,-15,Cc1cc(NC(=O)/C=C/c2csc(C)n2)n(CCC#N)n1 [Compound Z826713788]
4,-5,Cc1cc(NC(=O)c2cc3c(F)cccc3s2)n(CCC#N)n1 [Compound Z826713980]
5,35,Cc1nn(C)c2nc(-c3ccccc3)cc(C(=O)Nc3ccc4nc(CN5CCOCC5)[nH]c4c3)c12 [Compound Z826860216]
6,1,Oc1cccc(CN(c2ncnc3ccsc23)C2CC2)c1 [Compound Z826941792]
7,7,O=S1(=O)CCC(N2CCN(Cc3cc(Cl)cc(C4CCCCC4)c3O)CC2)C1 (stereo not shown) [Compound Z827167912]
8,-21,CC1CN(C(=O)Nc2ccccn2)CCN1C(=O)Nc1ccccn1 (stereo not shown) [Compound Z827524892]
9,16,CCCN(C1CCS(=O)(=O)C1)S(=O)(=O)CCC (stereo not shown) [Compound Z830071152]
10,13,Cc1cccc(C)c1OCC(O)CNc1ncnc2sc(C)c(C)c12 (stereo not shown) [Compound Z838103434]
11,6,O=C(N/N=C/C=C/c1ccco1)c1ccc(-c2ccc(F)cc2)s1 [Compound Z839335172]
12,-15,CC(=O)Nc1ccc(/C=C/C(=O)c2ccccc2-n2cccn2)cc1 [Compound Z839413590]
13,5,CCOC(=O)COc1ccc(C2(C)NC(=O)c3cc(Cl)ccc3N2)cc1 (stereo not shown) [Compound Z839958866]
14,0,CCc1c(C(=O)CN2CCCC2c2ccsc2)[nH]c(C)c1C(C)=O (stereo not shown) [Compound Z839968520]
15,10,O=C(OCc1noc(C2CC2)n1)c1c[nH]cc1-c1ccc(Cl)s1 [Compound Z847574324]
16,3,Cc1cc(C)n(C(C)C(=O)Nc2ccc(NC(=O)C(C)(C)C)cc2Cl)n1 (stereo not shown) [Compound Z850607168]
17,12,C/C(=C\C(=O)N1CCN(c2cnccn2)CC1)C12CC3CC(CC(C3)C1)C2 [Compound Z850748812]
18,17,NC(=O)C1(CNC(=O)c2cc3c(cc2O)CCCC3)CCOCC1 [Compound Z856541214]
19,66,COC(=O)c1sc2ncc(/C=C/C(=O)c3cccnc3)cc2c1C [Compound Z871886494]
20,-4,COC(=O)c1sc2ncc(/C=C3\C(=O)Nc4ccccc43)cc2c1C [Compound Z872035512]
21,12,Cc1nc(-c2ccncc2)[nH]c(=O)c1CCC(=O)NCc1ccncc1 [Compound Z873001918]
22,-17,CC1CCN(c2ccc([N+](=O)[O-])cc2C(=O)N2CCN(Cc3cn4cc(Cl)ccc4n3)CC2)CC1 [Compound Z901305410]
23,-3,Cc1cc(NC(=O)c2cc(-c3cccs3)on2)n(CCC#N)n1 [Compound Z908095506]

row,First screening IR (inhibition rate) [%],Structure (SMILES)
1,-8,Cc1c(C(=O)N(C2CCC(C)CC2)C2CC2)cnn1-c1ccc(=O)[nH]n1 (stereo not shown) [Compound Z908597782]
2,7,COc1ccc(C(=O)N2CCCC2)cc1NC(=O)CC1CCCC1 [Compound Z913725738]
3,-7,COc1ccc(CN2CCC(CNC(=O)c3ccccc3SCc3c(C)noc3C)CC2)cc1 [Compound Z914096084]
4,-15,O=C(CN1CCN(C(=O)c2oc3ccccc3c2CSc2nccc(=O)[nH]2)CC1)N1CCCCC1 [Compound Z915764402]
5,0,Cc1sc2nc(CN3CCC(C)CC3)nc(N3CCCN(C(=O)Cc4ccccn4)CC3)c2c1C [Compound Z915925636]
6,-25,COc1cc(NC(=O)Cc2c(C)[nH]c3ccccc23)c(C(N)=O)cc1OC [Compound Z917537988]
7,-9,CC(Oc1cccc(Cl)c1Cl)C(=O)Nc1ccc2nc[nH]c(=O)c2c1 (stereo not shown) [Compound Z927306002]
8,13,COc1ccccc1-c1cc(NC(=O)c2ccc(Cn3cncn3)cc2)n[nH]1 [Compound Z927972178]
9,-3,FC(F)(F)c1ccnc(Nc2ccc3nc(C4CC4)sc3c2)n1 [Compound Z929767438]
10,-1,COc1ccc(N(C)C(=O)c2[nH]nc(-c3ccccc3)c2Br)cn1 [Compound Z934680220]
11,18,CCOc1ccc(C(=O)Nc2ccc3c(c2)C(=O)NC3)cc1OCC [Compound Z943285536]
12,5,O=c1[nH]ncc(NCc2ccc(Cn3cnc4ccccc43)cc2)c1Cl [Compound Z951371090]
13,-12,Cc1noc(C(C)NC(=O)C2CSCN2C(=O)c2ccccc2)n1 (stereo not shown) [Compound Z954394146]
14,-9,Cc1c(NC(=O)C2CC(=O)N(c3ccc4c(c3)CCC4)C2)n[nH]c1C1CC1 (stereo not shown) [Compound Z954497746]
15,-5,CCN1CCN(c2cc(CNC(=O)c3cn(-c4ccccc4)nc3-c3ccc(OC)cc3)ccn2)CC1 [Compound Z955363064]
16,68,O=C(Nc1cc(-c2ccc(Br)s2)[nH]n1)c1ccc2c(c1)COC2 [Compound Z956276516]
17,32,CC(C)c1cccc(N(C)C(=O)c2cccnc2S(=O)(=O)C(F)(F)F)c1 [Compound Z959760312]
18,43,O=C(NCCc1c[nH]c2cc(F)ccc12)c1cnc(-c2ccccc2)nc1 [Compound Z960870544]
19,-11,Cc1c(C(=O)Nc2ccc3c(ccn3CCN3CCOCC3)c2)nnn1-c1ccc(F)cc1 [Compound Z961847812]
20,23,COc1ccc(C)cc1N1CC(C(=O)Nc2ccc3c(ccn3CCN3CCOCC3)c2)CC1=O (stereo not shown) [Compound Z961849222]
21,2,CCOC(=O)Cn1ccc2cc(NC(=O)c3sc(-c4ccccc4)nc3C)ccc21 [Compound Z968524204]
22,50,O=S1(=O)CCC(S(=O)(=O)NC2CCCCCC2)CC1 [Compound Z968739862]
23,-2,Cc1ccccc1CN(C)S(=O)(=O)C1CCS(=O)(=O)CC1 [Compound Z968740596]

row,First screening IR (inhibition rate) [%],Structure (SMILES)
1,-8,Cc1ccnn1-c1ccc(C(=O)N2CCC(N3CCCC3C(N)=O)CC2)cc1 (stereo not shown) [Compound Z968814168]
2,11,C(=N/Nc1nc2ccccc2nc1-c1ccccc1)/c1ccc2nccnc2c1 [Compound Z969651240]
3,16,O=C(/C=C/c1cccnc1)c1ccc(N2CCOC2=O)cc1 [Compound Z970272914]
4,5,CC(C)C(C)NC(=O)C1CCN(Cc2ccc(C#N)cc2)CC1 (stereo not shown) [Compound Z975048678]
5,0,Cc1cc(CN2CCSCC2)ccc1NC(=O)c1ccnc(N(C)C)c1 [Compound Z978895402]
6,7,CC(C)NC(=O)Nc1ccc(C(=O)N(CCC#N)Cc2ccco2)cc1 [Compound Z979061162]
7,4,Cn1c(CSc2n[nH]c(-c3ccccc3F)n2)nc2ccccc21 [Compound Z982182198]
8,-17,CS(=O)(=O)Cc1ccc(CNc2ccnc3c(F)ccc(F)c23)cc1 [Compound Z983418922]
9,8,O=C(Nc1cccc(OCCn2cccn2)c1)NC1CCSCC1 [Compound Z987964770]
10,6,Cc1cccc(NCC2CCN(c3ncnc4c3cnn4C)C2)n1 (stereo not shown) [Compound Z990436502]
11,-3,Cc1ccnc(NCC2CCN(Cc3cccc(C(N)=O)c3)C2)c1 (stereo not shown) [Compound Z990550860]
12,2,Cc1cccc(NCC2CCN(Cc3cccc(C(N)=O)c3)C2)n1 (stereo not shown) [Compound Z990551490]
13,2,N#CCCn1ncc2c(NCc3ccc4c(c3)OCCO4)ncnc21 [Compound Z990838348]
14,-6,OCCn1ncc2c(NCCc3nnc4ccccn34)ncnc21 [Compound Z990848218]
15,3,N#CCCn1ncc2c(N3CCN(Cc4ccco4)CC3)ncnc21 [Compound Z990852254]
16,4,CC1CN(c2ncnc3c2cnn3CCC#N)CCO1 (stereo not shown) [Compound Z990855820]
17,-12,N#CCCn1ncc2c(NC3CCCC(C(F)(F)F)C3)ncnc21 (stereo not shown) [Compound Z990858522]
18,-8,CC(C)C(=O)N1CCC(Nc2ncnc3c2cnn3CCC#N)CC1 [Compound Z990868196]
19,11,CC(CNc1ncnc2c1cnn2CCO)Cn1cccn1 (stereo not shown) [Compound Z990883644]
20,27,COc1c(CNCc2ccc(C(=O)N(C)C)cc2)c(C)nn1C [Compound Z991036884]
21,-14,O=C(NCc1nc(-c2ccccc2)n[nH]1)c1ccc(-c2ccccc2)cc1 [Compound Z991809296]
22,-3,O=C(Cc1ccc(OC(F)F)cc1)N1CCC(c2nc(-c3ccccc3)n[nH]2)CC1 [Compound Z991836758]
23,-4,Cc1cccc(C(C)C)c1NC(=O)CN1CCCCC1Cc1ccccc1 (stereo not shown) [Compound Z991917352]

row,Structure (SMILES),First screening IR (inhibition rate) [%]
1,CN1CCC(N(C)c2ccc(NC(=O)c3c(O)cc(F)cc3F)cc2)CC1 [Compound Z910632940],6

# Same assay, conditions: second screening, dissolved from fresh powder; n = 4; 10 μmol L−1 compound
row,Second screening IR (inhibition rate) [%],Structure (SMILES)
1,-11,Cc1nn(C)c2nc(-c3ccccc3)cc(C(=O)Nc3ccc4nc(CN5CCOCC5)[nH]c4c3)c12 [Compound Z826860216]
2,12,COC(=O)c1sc2ncc(/C=C/C(=O)c3cccnc3)cc2c1C [Compound Z871886494]
3,-29,COc1c(CNCc2ccc(C(=O)N(C)C)cc2)c(C)nn1C [Compound Z991036884]
